From patent publication US20240398811A1, “PRC2 INHIBITORS FOR USE IN TREATING BLOOD DISORDERS” (ORIC Pharmaceuticals, Inc., priority 2021, published 2024)

Biological target: purified human, His-tagged PRC2 complex (Homo sapiens (Human), UniProt O75530)
Assay: Hot Spot HMT assay, inhibition of PRC2 enzymatic activity
Assay type: biochemical
Conditions: 10 nM PRC2 complex, 1 μM 3H-SAM, core histone H3, 10-point dose-response
Outline: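 Five-subunit PRC2 complex (EZH2, EED, SUZ12, AEBP2, RbAp48; 10 nM) preincubated 20 min at 30° C with compound (top 1.0 μM) and 0.05 mg/ml core histone H3 in Tris-HCl, 1% DMSO. Started with 1 μM [3H]SAM, 1 hr at 30° C; tritiated H3 measured by filter binding and scintillation.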

Chain of purified human, His-tagged PRC2 complex (O75530 whole entry): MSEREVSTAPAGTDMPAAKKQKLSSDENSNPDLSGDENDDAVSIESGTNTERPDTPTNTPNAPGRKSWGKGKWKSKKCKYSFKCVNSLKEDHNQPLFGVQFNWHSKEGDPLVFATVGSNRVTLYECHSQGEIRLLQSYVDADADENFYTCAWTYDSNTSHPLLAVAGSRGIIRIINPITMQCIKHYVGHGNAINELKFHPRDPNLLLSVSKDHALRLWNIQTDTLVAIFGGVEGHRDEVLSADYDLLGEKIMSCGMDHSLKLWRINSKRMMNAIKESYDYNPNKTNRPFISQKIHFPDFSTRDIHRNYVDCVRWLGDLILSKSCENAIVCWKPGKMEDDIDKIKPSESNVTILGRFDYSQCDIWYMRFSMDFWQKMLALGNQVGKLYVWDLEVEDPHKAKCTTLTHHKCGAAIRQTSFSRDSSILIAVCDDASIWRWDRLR
Chain of purified human, His-tagged PRC2 complex (Q15910 whole entry partner): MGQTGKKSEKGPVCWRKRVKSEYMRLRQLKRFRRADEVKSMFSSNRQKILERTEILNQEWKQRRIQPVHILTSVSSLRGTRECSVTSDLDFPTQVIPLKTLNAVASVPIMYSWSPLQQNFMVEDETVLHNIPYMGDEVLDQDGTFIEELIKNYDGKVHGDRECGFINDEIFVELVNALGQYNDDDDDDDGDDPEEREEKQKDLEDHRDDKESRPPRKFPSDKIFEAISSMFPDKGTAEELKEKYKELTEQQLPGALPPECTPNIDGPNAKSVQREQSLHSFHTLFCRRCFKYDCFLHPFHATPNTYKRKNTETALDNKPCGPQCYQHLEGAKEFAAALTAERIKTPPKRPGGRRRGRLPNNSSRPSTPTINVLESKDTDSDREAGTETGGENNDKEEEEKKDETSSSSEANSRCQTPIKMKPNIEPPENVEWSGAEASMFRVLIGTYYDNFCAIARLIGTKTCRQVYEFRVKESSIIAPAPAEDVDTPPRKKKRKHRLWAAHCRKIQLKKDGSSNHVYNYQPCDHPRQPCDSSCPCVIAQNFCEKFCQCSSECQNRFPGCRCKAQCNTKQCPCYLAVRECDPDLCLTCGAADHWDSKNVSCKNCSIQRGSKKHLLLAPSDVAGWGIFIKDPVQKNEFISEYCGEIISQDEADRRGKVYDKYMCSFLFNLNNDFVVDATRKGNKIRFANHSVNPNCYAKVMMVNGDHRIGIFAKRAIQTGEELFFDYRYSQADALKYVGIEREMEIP
Chain of purified human, His-tagged PRC2 complex (Q15022 whole entry partner): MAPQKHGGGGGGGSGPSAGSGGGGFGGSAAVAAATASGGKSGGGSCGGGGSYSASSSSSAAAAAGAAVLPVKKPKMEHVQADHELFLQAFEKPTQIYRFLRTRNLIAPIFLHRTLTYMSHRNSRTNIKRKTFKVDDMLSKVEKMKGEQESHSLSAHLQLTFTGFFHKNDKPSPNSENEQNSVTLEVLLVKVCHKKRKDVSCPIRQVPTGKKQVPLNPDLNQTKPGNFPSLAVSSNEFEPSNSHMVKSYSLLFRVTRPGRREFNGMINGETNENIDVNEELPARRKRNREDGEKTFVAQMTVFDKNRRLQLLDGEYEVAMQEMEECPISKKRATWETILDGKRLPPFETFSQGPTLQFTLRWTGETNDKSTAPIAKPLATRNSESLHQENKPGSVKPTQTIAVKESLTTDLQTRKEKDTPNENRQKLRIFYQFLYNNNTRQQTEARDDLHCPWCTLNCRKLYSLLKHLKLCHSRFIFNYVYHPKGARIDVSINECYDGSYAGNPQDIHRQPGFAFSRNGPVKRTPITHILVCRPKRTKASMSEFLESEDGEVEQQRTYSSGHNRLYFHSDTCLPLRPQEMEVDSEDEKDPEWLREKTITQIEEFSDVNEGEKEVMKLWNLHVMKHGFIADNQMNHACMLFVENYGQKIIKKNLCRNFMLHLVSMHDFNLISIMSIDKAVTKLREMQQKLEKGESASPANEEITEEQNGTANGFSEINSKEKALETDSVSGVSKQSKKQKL
Chain of purified human, His-tagged PRC2 complex (Q6ZN18 whole entry partner): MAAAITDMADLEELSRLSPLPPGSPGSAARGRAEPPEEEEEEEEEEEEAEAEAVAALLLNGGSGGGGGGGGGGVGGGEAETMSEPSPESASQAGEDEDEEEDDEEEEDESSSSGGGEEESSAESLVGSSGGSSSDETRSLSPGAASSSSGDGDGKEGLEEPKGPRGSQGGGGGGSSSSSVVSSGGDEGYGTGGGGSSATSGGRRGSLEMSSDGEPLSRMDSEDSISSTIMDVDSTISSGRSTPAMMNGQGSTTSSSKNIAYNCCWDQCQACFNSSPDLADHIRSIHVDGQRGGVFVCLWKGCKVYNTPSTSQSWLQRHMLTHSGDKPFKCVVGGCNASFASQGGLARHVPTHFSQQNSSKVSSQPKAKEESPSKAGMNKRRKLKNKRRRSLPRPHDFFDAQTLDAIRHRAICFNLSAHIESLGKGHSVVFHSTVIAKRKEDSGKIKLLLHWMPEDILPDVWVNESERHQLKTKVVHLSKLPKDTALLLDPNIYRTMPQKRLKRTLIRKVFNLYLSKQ
Chain of purified human, His-tagged PRC2 complex (Q09028 whole entry partner): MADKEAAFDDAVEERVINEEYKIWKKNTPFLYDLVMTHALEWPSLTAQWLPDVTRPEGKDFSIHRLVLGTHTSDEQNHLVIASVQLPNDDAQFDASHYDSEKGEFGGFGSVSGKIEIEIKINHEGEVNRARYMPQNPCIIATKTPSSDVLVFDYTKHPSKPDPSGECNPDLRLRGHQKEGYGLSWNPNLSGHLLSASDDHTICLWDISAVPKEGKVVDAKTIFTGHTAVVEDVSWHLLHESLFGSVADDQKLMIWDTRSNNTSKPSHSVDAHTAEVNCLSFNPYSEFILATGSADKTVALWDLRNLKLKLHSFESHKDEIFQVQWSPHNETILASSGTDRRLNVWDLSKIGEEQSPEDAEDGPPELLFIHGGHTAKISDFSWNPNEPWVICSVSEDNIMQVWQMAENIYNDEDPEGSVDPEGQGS

| SMILES | IC50 [nM] |
| --- | --- |
| Cc1cc(C(=O)N(C)C)ncc1-c1cnc(NCc2c(F)ccc3c2CCO3)n2cc(C#N)nc12 [Example 76, 5-(2-cyano-5-(((5-fluoro-2,3-dihydrobenzofuran-4-yl)methyl)amino)imidazo[1,2-c]pyrimidin-8-yl)-N,N,4-trimethylpicolinamide] | < 100 |
| N#Cc1cn2c(NCc3c(F)ccc4c3CCO4)ncc(C3CC3)c2n1 [Example 77, 8-cyclopropyl-5-(((5-fluoro-2,3-dihydrobenzofuran-4-yl)methyl)amino)imidazo[1,2-c]pyrimidine-2-carbonitrile] | 100 to 500 |
| Cc1n[nH]cc1-c1cnc(NCc2c(F)ccc3c2CCO3)n2cc(C#N)nc12 [Example 79, 5-(((5-fluoro-2,3-dihydrobenzofuran-4-yl)methyl)amino)-8-(3-methyl-1H-pyrazol-4-yl)imidazo[1,2-c]pyrimidine-2-carbonitrile] | < 100 |
| Cc1cc(-c2cnc(NCc3c(F)ccc4sccc34)n3cc(C#N)nc23)n(C)n1 [Example 81, 8-(1,3-dimethyl-1H-pyrazol-5-yl)-5-(((5-fluorobenzo[b]thiophen-4-yl)methyl)amino)imidazo[1,2-c]pyrimidine-2-carbonitrile] | > 500 |
| CN(C)Cc1ccc(-c2cnc(NCc3c(F)ccc4c3CCO4)n3cc(C#N)nc23)c(Cl)c1F [Example 83, 8-(2-chloro-4-((dimethylamino)methyl)-3-fluorophenyl)-5-(((5-fluoro-2,3-dihydrobenzofuran-4-yl)methyl)amino)imidazo[1,2-c]pyrimidine-2-carbonitrile] | < 100 |
| Cc1cc(CN(C)C)c(F)cc1-c1cnc(NCc2c(F)ccc3c2CCO3)n2cc(C#N)nc12 [Example 84, 8-(4-((dimethylamino)methyl)-5-fluoro-2-methylphenyl)-5-(((5-fluoro-2,3-dihydrobenzofuran-4-yl)methyl)amino)imidazo[1,2-c]pyrimidine-2-carbonitrile] | 100 to 500 |
| Cc1c(-c2cnc(NCc3c(F)ccc4c3CCO4)n3cc(C#N)nc23)ccc(CN(C)C)c1F [Example 85, 8-(4-((dimethylamino)methyl)-3-fluoro-2-methylphenyl)-5-(((5-fluoro-2,3-dihydrobenzofuran-4-yl)methyl)amino)imidazo[1,2-c]pyrimidine-2-carbonitrile] | < 100 |
| Cc1cc(S(C)(=O)=O)ccc1-c1cnc(NCc2c(F)ccc3c2CCO3)n2cc(C#N)nc12 [Example 87, 5-(((5-fluoro-2,3-dihydrobenzofuran-4-yl)methyl)amino)-8-(2-methyl-4-(methylsulfonyl)phenyl)imidazo[1,2-c]pyrimidine-2-carbonitrile] | < 100 |
| COc1ncc(-c2cnc(NCc3c(F)ccc4c3CCO4)n3cc(C#N)nc23)c(C)n1 [Example 88, 5-(((5-fluoro-2,3-dihydrobenzofuran-4-yl)methyl)amino)-8-(2-methoxy-4-methylpyrimidin-5-yl)imidazo[1,2-c]pyrimidine-2-carbonitrile] | < 100 |
| Cc1nc(OC(C)C)ncc1-c1cnc(NCc2c(F)ccc3c2CCO3)n2cc(C#N)nc12 [Example 89, 5-(((5-fluoro-2,3-dihydrobenzofuran-4-yl)methyl)amino)-8-(2-isopropoxy-4-methylpyrimidin-5-yl)imidazo[1,2-c]pyrimidine-2-carbonitrile] | < 100 |
| COc1cc(Cl)c(-c2cnc(NCc3c(F)ccc4c3CCO4)n3cc(C#N)nc23)cn1 [Example 91, 8-(4-chloro-6-methoxypyridin-3-yl)-5-(((5-fluoro-2,3-dihydrobenzofuran-4-yl)methyl)amino)imidazo[1,2-c]pyrimidine-2-carbonitrile] | 100 to 500 |
| Cc1nn(C(C)C)c(C)c1-c1cnc(NCc2c(F)ccc3c2CCO3)n2cc(C#N)nc12 [Example 92, 5-(((5-fluoro-2,3-dihydrobenzofuran-4-yl)methyl)amino)-8-(1-isopropyl-3,5-dimethyl-1H-pyrazol-4-yl)imidazo[1,2-c]pyrimidine-2-carbonitrile] | 100 to 500 |
| N#Cc1cn2c(NCc3c(F)ccc4c3CCO4)ncc(-c3cnn(Cc4cccnc4)c3)c2n1 [Example 101, 5-(((5-fluoro-2,3-dihydrobenzofuran-4-yl)methyl)amino)-8-(1-(pyridin-3-ylmethyl)-1H-pyrazol-4-yl)imidazo[1,2-c]pyrimidine-2-carbonitrile] | 100 to 500 |
| CN(C)CCn1cc(-c2cnc(NCc3c(F)ccc4c3CCO4)n3cc(C#N)nc23)cn1 [Example 102, 8-(1-(2-(dimethylamino)ethyl)-1H-pyrazol-4-yl)-5-(((5-fluoro-2,3-dihydrobenzofuran-4-yl)methyl)amino)imidazo[1,2-c]pyrimidine-2-carbonitrile] | 100 to 500 |
| CN(C)CCCn1cc(-c2cnc(NCc3c(F)ccc4c3CCO4)n3cc(C#N)nc23)cn1 [Example 103, 8-(1-(3-(dimethylamino)propyl)-1H-pyrazol-4-yl)-5-(((5-fluoro-2,3-dihydrobenzofuran-4-yl)methyl)amino)imidazo[1,2-c]pyrimidine-2-carbonitrile] | 100 to 500 |
| Cc1n[nH]c(C)c1-c1cnc(NCc2c(F)ccc3c2CCO3)n2cc(C#N)nc12 [Example 104, 8-(3,5-dimethyl-1H-pyrazol-4-yl)-5-(((5-fluoro-2,3-dihydrobenzofuran-4-yl)methyl)amino)imidazo[1,2-c]pyrimidine-2-carbonitrile] | > 500 |

Continued, values first:

| IC50 [nM] | SMILES |
| --- | --- |
| < 100 | CS(=O)(=O)c1ccc(-c2cnc(NCc3c(F)ccc4c3CCO4)n3cc(C#N)nc23)cc1 [Example 73, 5-(((5-fluoro-2,3-dihydrobenzofuran-4-yl)methyl)amino)-8-(4-(methylsulfonyl)phenyl)imidazo[1,2-c]pyrimidine-2-carbonitrile] |
| < 100 | N#Cc1cn2c(NCc3c(F)ccc4c3CCO4)ncc(-c3ccc(CN4CCCC4)cc3)c2n1 [Example 74, 5-(((5-fluoro-2,3-dihydrobenzofuran-4-yl)methyl)amino)-8-(4-(pyrrolidin-1-ylmethyl)phenyl)imidazo[1,2-c]pyrimidine-2-carbonitrile] |
| < 100 | N#Cc1cn2c(NCc3c(F)ccc4c3CCO4)ncc(-c3ccc(CN4CCOCC4)cc3)c2n1 [Example 75, 5-(((5-fluoro-2,3-dihydrobenzofuran-4-yl)methyl)amino)-8-(4-(morpholinomethyl)phenyl)imidazo[1,2-c]pyrimidine-2-carbonitrile] |
| < 100 | N#Cc1cn2c(NCc3c(F)ccc4c3CCO4)ncc(-c3cnn4c3CCC4)c2n1 [Example 80, 8-(5,6-dihydro-4H-pyrrolo[1,2-b]pyrazol-3-yl)-5-(((5-fluoro-2,3-dihydrobenzofuran-4-yl)methyl)amino)imidazo[1,2-c]pyrimidine-2-carbonitrile] |
| 100 to 500 | N#Cc1cn2c(NCc3c(F)ccc4c3CCO4)ncc(-c3ccc(S(=O)(=O)C(F)(F)F)cc3)c2n1 [Example 82, 5-(((5-fluoro-2,3-dihydrobenzofuran-4-yl)methyl)amino)-8-(4-((trifluoromethyl)sulfonyl)phenyl)imidazo[1,2-c]pyrimidine-2-carbonitrile] |
| < 100 | Cc1cc(-c2cnc(NCc3c(F)ccc4c3CCO4)n3cc(C#N)nc23)n(C)n1 [Example 86, 8-(1,3-dimethyl-1H-pyrazol-5-yl)-5-(((5-fluoro-2,3-dihydrobenzofuran-4-yl)methyl)amino)imidazo[1,2-c]pyrimidine-2-carbonitrile] |
| < 100 | CC(c1ccc(-c2cnc(NCc3c(F)ccc4c3CCO4)n3cc(C#N)nc23)cc1)N1CCCC1 (stereo not shown) [Example 90, 5-(((5-fluoro-2,3-dihydrobenzofuran-4-yl)methyl)amino)-8-(4-(1-(pyrrolidin-1-yl)ethyl)phenyl)imidazo[1,2-c]pyrimidine-2-carbonitrile] |
| 100 to 500 | COc1cncc(-c2cnc(NCc3c(F)ccc4c3CCO4)n3cc(C#N)nc23)c1 [Example 93, 5-(((5-fluoro-2,3-dihydrobenzofuran-4-yl)methyl)amino)-8-(5-methoxypyridin-3-yl)imidazo[1,2-c]pyrimidine-2-carbonitrile] |
| < 100 | COc1ccc(-c2cnc(NCc3c(F)ccc4c3CCO4)n3cc(C#N)nc23)cn1 [Example 94, 5-(((5-fluoro-2,3-dihydrobenzofuran-4-yl)methyl)amino)-8-(6-methoxypyridin-3-yl)imidazo[1,2-c]pyrimidine-2-carbonitrile] |
| < 100 | N#Cc1cncc(-c2cnc(NCc3c(F)ccc4c3CCO4)n3cc(C#N)nc23)c1 [Example 95, 8-(5-cyanopyridin-3-yl)-5-(((5-fluoro-2,3-dihydrobenzofuran-4-yl)methyl)amino)imidazo[1,2-c]pyrimidine-2-carbonitrile] |
| < 100 | Cc1cncc(-c2cnc(NCc3c(F)ccc4c3CCO4)n3cc(C#N)nc23)c1 [Example 96, 5-(((5-fluoro-2,3-dihydrobenzofuran-4-yl)methyl)amino)-8-(5-methylpyridin-3-yl)imidazo[1,2-c]pyrimidine-2-carbonitrile] |
| < 100 | N#Cc1cn2c(NCc3c(F)ccc4c3CCO4)ncc(-c3cncc(F)c3)c2n1 [Example 97, 5-(((5-fluoro-2,3-dihydrobenzofuran-4-yl)methyl)amino)-8-(5-fluoropyridin-3-yl)imidazo[1,2-c]pyrimidine-2-carbonitrile] |
| < 100 | Cc1ccncc1-c1cnc(NCc2c(F)ccc3c2CCO3)n2cc(C#N)nc12 [Example 98, 5-(((5-fluoro-2,3-dihydrobenzofuran-4-yl)methyl)amino)-8-(4-methylpyridin-3-yl)imidazo[1,2-c]pyrimidine-2-carbonitrile] |
| < 100 | CC(C)n1cc(-c2cnc(NCc3c(F)ccc4c3CCO4)n3cc(C#N)nc23)cn1 [Example 99, 5-(((5-fluoro-2,3-dihydrobenzofuran-4-yl)methyl)amino)-8-(1-isopropyl-1H-pyrazol-4-yl)imidazo[1,2-c]pyrimidine-2-carbonitrile] |
| < 100 | N#Cc1cn2c(NCc3c(F)ccc4c3CCO4)ncc(-c3cccnc3)c2n1 [Example 100, 5-(((5-fluoro-2,3-dihydrobenzofuran-4-yl)methyl)amino)-8-(pyridin-3-yl)imidazo[1,2-c]pyrimidine-2-carbonitrile] |
